# US10085442B2, “Agrochemical formulation” (SYNGENTA PARTICIPATIONS AG, priority 2014, dated 2018)
# Test: Rainfastness of cyantraniliprole on soya leaf (Example 10)
# Type: physicochemical, Glycine Max (Williams variety)
# Conditions: rain 10 mm/hour for one hour, 0.5 g of water replaced by copolymer
# Procedure: A range of substrates can be used in this test with the chosen material in this example being a soya leaf. Herein the soya, Glycine Max (Williams variety), was grown for 4 weeks in 4 inch pots with the top 2 tri-foliates used in the study. The leaves were mounted using double sided tape to flat tiles (30 cm by 30 cm) at an even spacing of 6 leaves per tile.
# A deposition solution was then prepared at the concentration which would be used under commercial application conditions. In this case 0.12 g of cyantraniliprole technical was added to […] water for the control and the effect of the styrene malemide co-polymer determined by creating a similar sample with 0.5 g of the water replaced by styrene malemide co-polymer. […]
# The quantities of cyantraniliprole in the acetonitrile solutions determined by mass spectrometry using a Waters Acquity UPLC and Thermo TSQ Quantum Ultra Triple Quadrupole MS Instrument or just LC/MS/MS. • Column: • Phase Ace C18 • Length (mm) 50 • Internal diameter (mm) 3.0 • Particle Size (μm) 3 • and the % active ingredient remaining after rainfall determined by dividing the quantity of cyantraniliprole on each leaf after rainfall by that before rainfall. • Cyantraniliprole: 2% cyantraniliprole remained on the leaves. • Cyantraniliprole+styrene malemide copolymer: 45% cyantraniliprole remained on the leaves.
structure (smiles),measurement,value
"CNC(=O)c1cc(C#N)cc(C)c1NC(=O)c1cc(Br)nn1-c1ncccc1Cl [Cyantraniliprole, cyantraniliprole]",% cyantraniliprole remained on the leaves after rainfall,2%
